# Assay results published in BindingDB's records for patent US12077506 (Nikang Therapeutics, 2024).
# Target: Endothelial PAS domain-containing protein 1 (Homo sapiens, UniProt Q99814)
# Assay: VEGF ELISA Assay
# Description: Four hours later, compounds were dispensed into wells by Tecan D300e digital dispenser with starting concentration of 10 uM and log of dilution down to 1 nM as final concentration. Each concentration of treatment was performed in duplicate. About 20 hours later, medium was removed and fresh medium was added, followed by compounds treatment as described above. After 24 hours, cell culture medium was collected to determine VEGF concentration using an ELISA kit (R&D systems, cat #DVE00) following the manufacturer's instruction.
# Chain of Endothelial PAS domain-containing protein 1 (Q99814 whole entry, the tested form may be a part): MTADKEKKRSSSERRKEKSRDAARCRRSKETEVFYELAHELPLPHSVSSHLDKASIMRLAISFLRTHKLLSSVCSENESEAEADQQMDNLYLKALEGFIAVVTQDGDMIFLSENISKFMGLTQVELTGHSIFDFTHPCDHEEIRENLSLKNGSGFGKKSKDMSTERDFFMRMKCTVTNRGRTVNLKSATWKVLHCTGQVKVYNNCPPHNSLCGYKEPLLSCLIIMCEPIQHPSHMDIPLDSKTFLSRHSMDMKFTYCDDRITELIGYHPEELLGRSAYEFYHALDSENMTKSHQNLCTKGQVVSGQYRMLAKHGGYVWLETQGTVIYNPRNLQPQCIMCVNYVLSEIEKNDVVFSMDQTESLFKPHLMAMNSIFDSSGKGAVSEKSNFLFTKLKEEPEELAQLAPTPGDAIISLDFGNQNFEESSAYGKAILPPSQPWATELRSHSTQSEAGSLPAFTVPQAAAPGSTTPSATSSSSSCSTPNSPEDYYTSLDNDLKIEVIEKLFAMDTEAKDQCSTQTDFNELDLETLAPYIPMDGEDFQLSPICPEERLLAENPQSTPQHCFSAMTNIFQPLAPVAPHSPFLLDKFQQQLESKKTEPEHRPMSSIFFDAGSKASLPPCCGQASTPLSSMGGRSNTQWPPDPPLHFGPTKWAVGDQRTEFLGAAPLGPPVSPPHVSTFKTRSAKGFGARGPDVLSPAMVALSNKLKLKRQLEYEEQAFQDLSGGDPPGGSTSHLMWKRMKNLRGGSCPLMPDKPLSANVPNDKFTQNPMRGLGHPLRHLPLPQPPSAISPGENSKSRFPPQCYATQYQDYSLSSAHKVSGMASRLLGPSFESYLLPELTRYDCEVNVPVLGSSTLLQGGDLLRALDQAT
smiles,measurement,value
"OC1c2c(ccc(Oc3cc(F)cc(F)c3)c2C(F)F)C(F)(F)C1(F)F (stereo unspecified) [US12077506, Compound I-4]",EC50,4 nM
